The source of these data is patent US11306081B2, “Phenylacetamides as inhibitors of rock” (BRISTOL-MYERS SQUIBB COMPANY, priority 2017, dated 2022).

Structures are written as SMILES.

Chain of ROCK2 (O75116 whole entry, species assumed): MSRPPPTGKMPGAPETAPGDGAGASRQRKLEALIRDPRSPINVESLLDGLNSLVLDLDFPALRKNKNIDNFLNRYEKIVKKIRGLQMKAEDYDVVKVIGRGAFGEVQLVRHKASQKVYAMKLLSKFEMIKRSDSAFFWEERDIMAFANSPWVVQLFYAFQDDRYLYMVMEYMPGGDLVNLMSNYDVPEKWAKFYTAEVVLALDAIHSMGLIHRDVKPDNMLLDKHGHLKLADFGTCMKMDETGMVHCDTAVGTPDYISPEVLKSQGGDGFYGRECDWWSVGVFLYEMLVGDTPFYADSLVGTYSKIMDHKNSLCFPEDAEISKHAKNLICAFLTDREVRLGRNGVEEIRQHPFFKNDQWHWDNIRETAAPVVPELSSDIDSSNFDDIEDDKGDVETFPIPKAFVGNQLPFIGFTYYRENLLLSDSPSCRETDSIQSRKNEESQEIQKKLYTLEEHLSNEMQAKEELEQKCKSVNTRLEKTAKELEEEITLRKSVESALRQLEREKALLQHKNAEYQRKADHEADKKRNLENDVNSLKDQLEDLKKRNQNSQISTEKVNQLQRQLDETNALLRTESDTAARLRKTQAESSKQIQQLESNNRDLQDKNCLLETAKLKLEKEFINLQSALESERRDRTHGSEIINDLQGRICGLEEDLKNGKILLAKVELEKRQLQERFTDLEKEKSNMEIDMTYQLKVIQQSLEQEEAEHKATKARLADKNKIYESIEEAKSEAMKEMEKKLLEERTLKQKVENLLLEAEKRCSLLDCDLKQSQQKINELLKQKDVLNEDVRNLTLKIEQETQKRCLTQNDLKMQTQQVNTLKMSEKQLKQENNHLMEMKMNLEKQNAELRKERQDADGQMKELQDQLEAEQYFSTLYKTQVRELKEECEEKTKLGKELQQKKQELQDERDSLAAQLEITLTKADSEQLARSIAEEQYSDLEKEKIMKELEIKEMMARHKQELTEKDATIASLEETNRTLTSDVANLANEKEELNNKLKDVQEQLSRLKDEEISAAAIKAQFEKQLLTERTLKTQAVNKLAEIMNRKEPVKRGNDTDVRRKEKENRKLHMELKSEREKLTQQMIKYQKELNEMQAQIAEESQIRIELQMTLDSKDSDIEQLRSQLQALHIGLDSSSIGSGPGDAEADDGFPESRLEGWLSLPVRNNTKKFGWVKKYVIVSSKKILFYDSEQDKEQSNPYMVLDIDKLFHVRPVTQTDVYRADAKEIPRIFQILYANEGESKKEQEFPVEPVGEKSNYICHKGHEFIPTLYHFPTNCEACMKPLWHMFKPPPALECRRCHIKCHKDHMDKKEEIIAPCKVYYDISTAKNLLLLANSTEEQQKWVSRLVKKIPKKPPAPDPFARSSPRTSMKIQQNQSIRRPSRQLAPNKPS

The assay concerns the target ROCK2 (Homo sapiens (Human), UniProt O75116). The assay can be described thus: ROCK assay (LABCHIP 3000 peptide phosphorylation assay). Format: biochemical. The conditions noted are these: 5 μM ATP, 1.5 μM peptide substrate, dose-response. An outline of the steps:
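Rho kinase variants in 20 mM HEPES pH 7.5, 20 mM MgCl2, 0.015% Brij-35, 4 mM DTT, 5 μM ATP, 1.5 μM FITC-AHA-AKRRRLSSLRA-OH peptide; DMSO <2%. EDTA-stopped; phosphorylated/non-phosphorylated peptide separated by microfluidic LabChip readout. Dose-response inhibition curve-fitted to give IC50.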
Regarding `NC(=O)c1cccnc1Oc1ccc(CC(=O)Nc2nc3c(OC(F)F)cccn3n2)cc1F` [Example 139, 2-(4-(2-((8-(difluoromethoxy)-[1,2,4]triazolo[1,5-a]pyridin-2-yl)amino)-2-oxoethyl)-2-fluorophenoxy)nicotinamide], inhibition was half-maximal at 0.025 µM (IC50). The result for `NC(=O)c1cccnc1Oc1ccc(CC(=O)Nc2nc3ccc(OC(F)(F)F)cn3n2)cc1F` [Example 140, 2-(2-fluoro-4-(2-oxo-2-((6-(trifluoromethoxy)-[1,2,4]triazolo[1,5-a]pyridin-2-yl)amino)ethyl)phenoxy)nicotinamide] reads 0.093 µM; that for `NC(=O)c1cccnc1Oc1ccc(CC(=O)Nc2nc3c(C(F)(F)F)cccn3n2)cc1F` [Example 141, 2-(2-fluoro-4-(2-oxo-2-((8-(trifluoromethyl)-[1,2,4]triazolo[1,5-a]pyridin-2-yl)amino)ethyl)phenoxy)nicotinamide], 0.034 µM; that for `NC(=O)c1cccnc1Oc1ccc(CC(=O)Nc2nc3cc(F)ccn3n2)cc1F` [Example 142, 2-(2-fluoro-4-(2-((7-fluoro-[1,2,4]triazolo[1,5-a]pyridin-2-yl)amino)-2-oxoethyl)phenoxy)nicotinamide], 0.072 µM. The result for `NC(=O)c1cccnc1Oc1ccc(CC(=O)Nc2nc3cc(OCc4ccccc4)ccn3n2)cc1F` [Example 143, 2-(4-(2-((7-(benzyloxy)-[1,2,4]triazolo[1,5-a]pyridin-2-yl)amino)-2-oxoethyl)-2-fluorophenoxy)nicotinamide] reads 0.006 µM. The result for `Cn1cc(-c2ccc3nc(NC(=O)Cc4ccc(Oc5ncccc5C(N)=O)c(F)c4)n(CC4CC4)c3c2)cn1` [Example 144, 2-(4-(2-((1-(cyclopropylmethyl)-6-(1-methyl-1H-pyrazol-4-yl)-1H-benzo[d]imidazol-2-yl)amino)-2-oxoethyl)-2-fluorophenoxy)nicotinamide] reads 0.005 µM; that for `CP(C)(=O)c1ccc2nc(NC(=O)Cc3ccc(Oc4ncccc4C(N)=O)c(F)c3)n(CC3CC3)c2c1` [Example 145, 2-(4-(2-((1-(cyclopropylmethyl)-6-(dimethylphosphoryl)-1H-benzo[d]imidazol-2-yl)amino)-2-oxoethyl)-2-fluorophenoxy)nicotinamide], 0.133 µM; that for `CP(C)(=O)c1ccc2sc(NC(=O)Cc3ccc(Oc4ncccc4C(N)=O)c(F)c3)nc2c1` [Example 146], 0.132 µM.

In the case of `CP(C)(=O)c1cccc2nc(NC(=O)Cc3ccc(Oc4ncccc4C(N)=O)c(F)c3)nn12` [Example 147], 1.39 µM corresponded to half-maximal inhibition (IC50). To `CP(C)(=O)c1ccc2c(c1)nc(NC(=O)Cc1ccc(Oc3ncccc3C(N)=O)c(F)c1)n2CC(F)(F)F` [Example 148, 2-(4-(2-((5-(dimethyl-phosphoryl)-1-(2,2,2-trifluoroethyl)-1H-benzo[d]imidazol-2-yl)amino)-2-oxoethyl)-2-fluorophenoxy)-nicotinamide] belongs 0.147 µM. In the case of `CP(C)(=O)c1ccc2nc(NC(=O)Cc3ccc(Oc4ncccc4C(N)=O)c(F)c3)cn2c1` [Example 149, 2-(4-(2-((6-(dimethyl-phosphoryl)imidazo-[1,2-a]pyridin-2-yl)-amino)-2-oxoethyl)-2-fluorophenoxy)-nicotinamide], 1.23 µM corresponded to half-maximal inhibition (IC50).

The molecule `CP(C)(=O)c1ccc2nc(NC(=O)Cc3ccc(Oc4ncccc4C(N)=O)c(F)c3)n(CC(F)F)c2c1` [Example 150, 2-(4-(2-((1-(2,2-difluoroethyl)-6-(dimethylphosphoryl)-1H-benzo[d]imidazol-2-yl)amino)-2-oxo-ethyl)-2-fluoro-phenoxy)nicotinamide] returned an IC50 of 0.465 µM.

Regarding `Cc1cccc(-c2nc(NC(=O)Cc3ccc(Oc4ncccc4C(N)=O)c(F)c3)sc2C)n1` [Example 151, 2-(2-fluoro-4-(2-((5-methyl-4-(6-methylpyridin-2-yl)thiazol-2-yl)amino)-2-oxoethyl)phenoxy)nicotinamide], the IC50 amounted to 0.044 µM. The result for `NC(=O)c1cccnc1Oc1ccc(CC(=O)Nc2nc3ccccc3n2CC2CCC2)cc1F` [Example 152, 2-(4-(2-((1-(cyclobutylmethyl)-1H-benzo[d]imidazol-2-yl)amino)-2-oxoethyl)-2-fluorophenoxy)nicotinamide] reads 0.055 µM.

Take `CC(C)n1c(NC(=O)Cc2ccc(Oc3ncccc3C(N)=O)c(F)c2)nc2ccccc21` [Example 153, 2-(2-fluoro-4-(2-((1-isopropyl-1H-benzo[d]imidazol-2-yl)amino)-2-oxoethyl)-phenoxy)nicotinamide]: half-maximal inhibition (IC50) was put at 0.218 µM. To `NC(=O)c1cccnc1Oc1ccc(CC(=O)Nc2nc3ccccc3n2CCC(F)(F)F)cc1F` [Example 154, 2-(2-fluoro-4-(2-oxo-2-((1-(3,3,3-trifluoropropyl)-1H-benzo[d]-imidazol-2-yl)-amino)ethyl)-phenoxy)nicotin-amide] belongs 0.042 µM; to `COCCn1c(NC(=O)Cc2ccc(Oc3ncccc3C(N)=O)c(F)c2)nc2ccccc21` [Example 155, 2-(2-fluoro-4-(2-((1-(2-methoxyethyl)-1H-benzo[d]-imidazol-2-yl)-amino)-2-oxo-ethyl)phenoxy)-nicotinamide], 1.93 µM; to `COCCn1c(NC(=O)Cc2ccc(Oc3ncccc3C(N)=O)c(F)c2)nc2cc(C(N)=O)ccc21` [Example 156, 2-(2-(4-((3-carbamoyl-pyridin-2-yl)oxy)-3-fluorophenyl)-acetamido)-1-(2-methoxyethyl)-1H-benzo[d]-imidazole-5-carboxamide], 3.46 µM. To `COCCn1c(NC(=O)Cc2ccc(Oc3ncccc3C(N)=O)c(F)c2)nc2ccc(OC)cc21` [Example 157, 2-(2-fluoro-4-(2-((6-methoxy-1-(2-methoxyethyl)-1H-benzo[d]-imidazol-2-yl)-amino)-2-oxo-ethyl)phenoxy)-nicotinamide] belongs 0.804 µM; to `COCCn1c(NC(=O)Cc2ccc(Oc3ncccc3C(N)=O)c(F)c2)nc2ccc(C(N)=O)cc21` [Example 158, 2-(2-(4-((3-carbamoyl-pyridin-2-yl)oxy)-3-fluorophenyl)-acetamido)-1-(2-methoxyethyl)-1H-benzo[d]-imidazole-6-carboxamide], 1.72 µM; to `NC(=O)c1cccnc1Oc1ccc(CC(=O)Nc2nc3ccccc3n2CC2CCOCC2)cc1F` [Example 159, 2-(2-fluoro-4-(2-oxo-2-((1-((tetra-hydro-2H-pyran-4-yl)methyl)-1H-benzo[d]imidazol-2-yl)amino)ethyl)-phenoxy)nicotin-amide], 2.18 µM. Turning to `COc1ccc2nc(NC(=O)Cc3ccc(Oc4ncccc4C(N)=O)c(F)c3)n(CC3CC3)c2c1` [Example 160, 2-(4-(2-((1-(cyclopropyl-methyl)-6-methoxy-1H-benzo[d]-imidazol-2-yl)-amino)-2-oxoethyl)-2-fluorophenoxy)-nicotinamide], the IC50 worked out at 0.039 µM. The result for `NC(=O)c1cccnc1Oc1ccc(CC(=O)Nc2nc3c(F)cccc3n2CC2CC2)cc1F` [Example 161, 2-(4-(2-((1-(cyclopropyl-methyl)-4-fluoro-1H-benzo[d]-imidazol-2-yl)-amino)-2-oxoethyl)-2-fluorophenoxy)-nicotinamide] reads 0.016 µM. To `COc1ccc2c(c1)nc(NC(=O)Cc1ccc(Oc3ncccc3C(N)=O)c(F)c1)n2CC1CC1` [Example 162, 2-(4-(2-((1-(cyclopropyl-methyl)-5-methoxy-1H-benzo[d]-imidazol-2-yl)-amino)-2-oxoethyl)-2-fluorophenoxy)-nicotinamide] belongs 0.047 µM.

What is called IC50 is the point on the concentration scale where inhibition reaches its midpoint.
